For test [1], the system named is DNA repair systems in HepG2 cells. The experiment in a line: DNA repair (Excision/Resynthesis, BER and NER) on lesion plasmid chip with extracts of treated HepG2 cells. To be noted: EMS alone. The class given is cell-based.
For test [2], the system named is differentiated SH-SY5Y (cells) exposed to Aftin-5. The experiment in a line: Curative test, Alzheimer model induced by Aftin-5 (10 μM): neurite length and cell counts. The class given is cell-based, human. To be noted: 10 μM Aftin-5 for 48 hours. The protocol: All tests were performed in three technical replicates using 96-well microplates. After inoculation, SH-SY5Y cells were differentiated by exposure to retinoic acid (10 μM) for 4 days.
After each test, the cells were fixed using a mixture of methanol and acetone at room temperature for 5 minutes, before staining the nuclei with Hoechst and immunostaining the B3 tubulin (secondary antibody conjugated to an Alexa 488 fluorochrome).
Models of neurodegenerative diseases can be established in the laboratory using differentiated neuronal cell lines. Using chemical inducers (Aftin-5, in this case), a model of Alzheimer's disease can be obtained with the human neuroblastoma cell line SH-SY5Y. The neuroprotective and curative properties of the combination of extracts are evaluated following neurotoxic aggression by counting neurons and measuring the length of neurites.
The cells were exposed for 2 days with 10 μM of Aftin-5 alone. […] After fixation and labeling, neurite outgrowth and cell counts were evaluated using MetaXpress (Molecular Devices).
The images were obtained using an ImageXpress® Micro XLS (Molecular Devices) automated microscope with a 20× objective. […] Four fields per well were recorded and analyzed individually.
The images were analyzed using MetaXpress (Molecular Devices) software.

For `CCOS(C)(=O)=O` [EMS, ethyl methane sulfonate], the “effect of genotoxic on repair of photoproducts (CPD-64), Nucleotide Excision Repair (NER)” value in test [1] is “not affected”. The “effect of genotoxic on Basic Excision Repair (BER)” value in test [1] (at least at the highest concentration tested (1 mM)) was “exclusively stimulates Basic Excision Repair (BER)”.

As for `CC[C@H](CO)Nc1nc(N(C)c2ccccc2)c2ncn(C(C)C)c2n1` [Aftin-5], in test [2], the “neurite length compared to the control (inducer alone)” value is listed as “significant reduction in neurite length”.

The values are drawn from patent US11771730B2, “Combination of Rhodiola and Astragalus for the treatment of neurodegenerative diseases” (HUMAN BY NATURE, priority 2018, dated 2023).
